Assay: Solid-state (polymorphic) stability of the crystalline form under humidity, temperature and mass pressure stress
Format: physicochemical
Excerpt: As used herein, the term “stable” in relation to crystalline Rivoceranib and Rivoceranib mesylate refers to less than 20%, less than 10%, less than 5%, less than 2%, less than 1%, or less than 0.5% conversion of crystalline Rivoceranib or Rivoceranib mesylate to any other solid state form of Rivoceranib or Rivoceranib mesylate, respectively.
As discussed above, depending on which other solid state it is compared with, Form RT2 of Rivoceranib according to the present disclosure may have advantageous properties as described above. Particularly, crystalline Form RT2 of Rivoceranib mesylate of the present disclosure is stable, for example upon exposure to high humidity or high temperature or high mass pressure conditions, such as 60° C./100% RH for up to 7 days or 80% RH at room temperature for 2 days, or under 100° C. for 60 minutes or under mass pressure of 2 ton for 1 minute.

stability upon exposure to high humidity and temperature (60° C./100% RH for up to 7 days): stable
stability upon exposure to high humidity (80% RH at room temperature for 2 days): stable
stability upon exposure to high temperature (100° C. for 60 minutes): stable
stability under high mass pressure (mass pressure of 2 ton for 1 minute): stable
SMILES: CS(=O)(=O)O.N#CC1(c2ccc(NC(=O)c3cccnc3NCc3ccncc3)cc2)CCCC1 [Form RT2, N-[4-(1-Cyanocyclopentyl)phenyl]-2-(pyridin-4-ylmethylamino)pyridine-3-carboxamide methanesulfonate]
